The values that follow come from PubChem BioAssay AID1053139 (Broad Institute, 2014).

Activity calls are given as the source filed them.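 Rule for the calls: active = AC50 for cell killing below 10 µM, with the signal falling as expected; inactive = the rest, including compounds acting in the opposite direction.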

Assay [1] in a line: HepG2 cell cytotoxicity, dose response, cytotoxicity control, ATP luminescence, dry powder, set 16 (AID 1053139). As to conditions: HepG2 viability, ATP luminescence (CellTiter-Glo), 72 h.
Assay [2] has as its system HepG2 viability, ATP luminescence (CellTiter-Glo), 72 h. Described as above.

In the case of `CO[C@H]1CN(C)C(=O)c2cc(NC(=O)NC(C)C)ccc2OC[C@H](C)N(Cc2ccc(-c3cccnc3)cc2)C[C@@H]1C`, the activity change, negative = cytotoxicity in assay [1] (at 50 µM (top of the series)) was 40.3% (inactive).
Still for that read-out and setting: the same measure for `CO[C@H]1CN(C)C(=O)c2cc(NC(=O)NC(C)C)ccc2OC[C@H](C)N(Cc2ccccc2F)C[C@@H]1C`: 12.7% (inactive).
Turning to `CCCC(=O)Nc1ccc2c(c1)OC[C@H](C)N(Cc1ccccc1)C[C@H](C)[C@@H](OC)CN(C)C2=O`, the activity change, negative = cytotoxicity in assay [1] (at 26 µM (top of the series)) is 6.6% (inactive).
In the case of `CO[C@H]1CN(C)C(=O)c2cc(NC(=O)NC(C)C)ccc2OC[C@H](C)N(Cc2cccc(F)c2)C[C@@H]1C`, the activity change, negative = cytotoxicity in assay [1] (at 50 µM (top of the series)) was -1.88% (inactive).
`CO[C@H]1CN(C)C(=O)c2cc(Nc3c(NC4CCCC4)c(=O)c3=O)ccc2OC[C@H](C)N(Cc2ccc(-c3ccccn3)cc2)C[C@@H]1C`: the activity change, negative = cytotoxicity in assay [1] (at 50 µM (top of the series)) was 6.09% (inactive).
The same measure, in the same setting: with `CO[C@H]1CN(C)C(=O)c2cc(NC(=O)NC(C)C)ccc2OC[C@H](C)N(Cc2ccccn2)C[C@@H]1C` the figure was 1.78% (inactive).
In the case of `CCCNC(=O)Nc1ccc2c(c1)OC[C@H](C)N(Cc1ccccc1)C[C@H](C)[C@@H](OC)CN(C)C2=O`, in assay [1] (at 26 µM (top of the series)), the activity change, negative = cytotoxicity is 11.9% (inactive).
Turning to `CO[C@H]1CN(C)C(=O)c2ccc(NC(=O)NC(C)C)cc2OC[C@H](C)N(Cc2ccccc2)C[C@@H]1C`, in assay [1] (at 26 µM (top of the series)), the activity change, negative = cytotoxicity was 9.75% (inactive).
As for `CO[C@H]1CN(C)C(=O)c2cc(NC(=O)NC(C)C)ccc2OC[C@H](C)N(C(=O)c2ccc(-c3ccccn3)cc2)C[C@@H]1C`, the activity change, negative = cytotoxicity in assay [1] (at 50 µM (top of the series)) is -10.3% (inactive).
Take `CO[C@H]1CN(C)C(=O)c2cc(NC(=O)NC(C)C)ccc2OC[C@H](C)N(C(=O)c2ccccc2)C[C@@H]1C`: the activity change, negative = cytotoxicity in assay [1] (at 50 µM (top of the series)) was -5.8% (inactive).
The same measure, in the same setting: with `CO[C@H]1CN(C)C(=O)c2cc(N)ccc2OC[C@H](C)N(Cc2ccc(-c3ccccn3)cc2)C[C@@H]1C` the figure was 19.6% (inactive).
For the compound `CO[C@H]1CN(C)C(=O)c2cc(NC(=O)NC(C)C)ccc2OC[C@H](C)NC[C@@H]1C`, in assay [1] (at 50 µM (top of the series)), the activity change, negative = cytotoxicity was -2.2% (inactive).
Take `CO[C@H]1CN(C)C(=O)c2cc(NC(=O)C(C)C)ccc2OC[C@H](C)N(Cc2ccc(-c3ccccn3)cc2)C[C@@H]1C`: the AC50 in assay [2] was > 24 µM (inactive).
Take `CCCC(=O)Nc1ccc2c(c1)OC[C@H](C)N(Cc1ccc(-c3ccccn3)cc1)C[C@H](C)[C@@H](OC)CN(C)C2=O`: the activity change, negative = cytotoxicity in assay [1] (at 26 µM (top of the series)) is 10.3% (inactive).
In the case of `CO[C@H]1CN(C)C(=O)c2cc(NC(=O)NC(C)C)ccc2OC[C@H](C)N(Cc2cncnc2)C[C@@H]1C`, the AC50 in assay [2] was > 100 µM (inactive).
As for `CO[C@H]1CN(C)C(=O)c2cc(NC(=O)NC(C)C)ccc2OC[C@H](C)N(Cc2ccncc2)C[C@@H]1C`, the activity change, negative = cytotoxicity in assay [1] (at 50 µM (top of the series)) was -4.57% (inactive).
Turning to `CO[C@H]1CN(C)C(=O)c2cc(NC(=O)NC(C)C)ccc2OC[C@H](C)N(C(=O)Nc2ccc(-c3ccccn3)cc2)C[C@@H]1C`, the activity change, negative = cytotoxicity in assay [1] (at 50 µM (top of the series)) was -15% (inactive).
Regarding `CCCNC(=O)Nc1ccc2c(c1)OC[C@H](C)N(Cc1ccc(-c3ccccn3)cc1)C[C@H](C)[C@@H](OC)CN(C)C2=O`, the activity change, negative = cytotoxicity in assay [1] (at 26 µM (top of the series)) is -4.61% (inactive).
On to `CO[C@H]1CN(C)C(=O)c2cc(Nc3c(NC4CC4)c(=O)c3=O)ccc2OC[C@H](C)N(Cc2ccc(-c3ccccn3)cc2)C[C@@H]1C`, for which the AC50 in assay [2] is 38.4 µM.
Consider `CO[C@H]1CN(C)C(=O)c2cc(Nc3c(NC(C)C)c(=O)c3=O)ccc2OC[C@H](C)N(Cc2ccc(-c3ccccn3)cc2)C[C@@H]1C`, for which the activity change, negative = cytotoxicity in assay [1] (at 50 µM (top of the series)) is -15.4% (inactive).
On to `CO[C@H]1CN(C)C(=O)c2cc(NC(=O)NC(C)C)ccc2OC[C@H](C)N(Cc2cccnc2)C[C@@H]1C`, for which, in assay [1] (at 50 µM (top of the series)), the activity change, negative = cytotoxicity is 6.28% (inactive).
For `CO[C@H]1CN(C)C(=O)c2cc(NC(=O)NC(C)C)ccc2OC[C@H](C)N(Cc2ccc(-c3ccncc3)cc2)C[C@@H]1C`, the activity change, negative = cytotoxicity in assay [1] (at 50 µM (top of the series)) is -12.8% (inactive).
On to `CCC(CC)Nc1c(Nc2ccc3c(c2)C(=O)N(C)C[C@H](OC)[C@@H](C)CN(Cc2ccc(-c4ccccn4)cc2)[C@@H](C)CO3)c(=O)c1=O`, for which the activity change, negative = cytotoxicity in assay [1] (at 50 µM (top of the series)) was -1.61% (inactive).
With `CO[C@H]1CN(C)C(=O)c2cc(NC(=O)NC(C)C)ccc2OC[C@H](C)N(Cc2ccc(F)cc2)C[C@@H]1C`, the activity change, negative = cytotoxicity in assay [1] (at 50 µM (top of the series)) was 0.295% (inactive).
`CO[C@H]1CN(C)C(=O)c2cc(Nc3c(NC4CCCCC4)c(=O)c3=O)ccc2OC[C@H](C)N(Cc2ccc(-c3ccccn3)cc2)C[C@@H]1C`: the activity change, negative = cytotoxicity in assay [1] (at 50 µM (top of the series)) was -22.3% (inactive).
`CO[C@H]1CN(C)C(=O)c2cc(NC(=O)NC(C)C)ccc2OC[C@H](C)N(Cc2ccc(-c3cncnc3)cc2)C[C@@H]1C`: the AC50 in assay [2] was > 100 µM (inactive).
In the case of `CO[C@H]1CN(C)C(=O)c2ccc(NC(=O)NC(C)C)cc2OC[C@H](C)N(Cc2ccc(-c3ccccn3)cc2)C[C@@H]1C`, the activity change, negative = cytotoxicity in assay [1] (at 26 µM (top of the series)) is -5.04% (inactive).
With `CO[C@H]1CN(C)C(=O)c2cc(NC(=O)OC(C)C)ccc2OC[C@H](C)N(Cc2ccc(-c3ccccn3)cc2)C[C@@H]1C`, the activity change, negative = cytotoxicity in assay [1] (at 50 µM (top of the series)) was 12.6% (inactive).
As to `CO[C@H]1CN(C)C(=O)c2cc(Nc3ncccn3)ccc2OC[C@H](C)N(Cc2ccc(-c3ccccn3)cc2)C[C@@H]1C`, in assay [1] (at 50 µM (top of the series)), the activity change, negative = cytotoxicity is 15.4% (inactive).
With `CO[C@H]1CN(C)C(=O)c2cc(NC(=O)NC(C)C)ccc2OC[C@H](C)N(Cc2ccc(-c3ccccn3)cc2)C[C@@H]1C`, the activity change, negative = cytotoxicity in assay [1] (at 50 µM (top of the series)) was -5.64% (inactive).
